For 16 compounds, IC50 results are on record in ChEMBL document CHEMBL2406920, “Synthesis, biological evaluation, X-ray molecular structure and molecular docking studies of RGD mimetics containing 6-amino-2,3-dihydroisoindolin-1-one fragment as ligands of integrin αIIbβ₃” (Bioorg Med Chem, 2013).

Assay [1] has as its target Integrin alpha-IIb/beta-3 (Homo sapiens, UniProt P05106+P08514). Description: Inhibition of FITC-labeled fibrinogen binding to integrin alpha2bbeta3 receptor in human platelets by flow cytometry. In general terms: In flow cytometry, cells or beads pass a laser one at a time.
Assay [2] deals with Platelet. Description: Inhibition of ADP-induced human platelet aggregation in platelet-rich plasma by Born's method. The format is functional.

Chain of Integrin alpha-IIb/beta-3 (P05106 27-788 limits assumed): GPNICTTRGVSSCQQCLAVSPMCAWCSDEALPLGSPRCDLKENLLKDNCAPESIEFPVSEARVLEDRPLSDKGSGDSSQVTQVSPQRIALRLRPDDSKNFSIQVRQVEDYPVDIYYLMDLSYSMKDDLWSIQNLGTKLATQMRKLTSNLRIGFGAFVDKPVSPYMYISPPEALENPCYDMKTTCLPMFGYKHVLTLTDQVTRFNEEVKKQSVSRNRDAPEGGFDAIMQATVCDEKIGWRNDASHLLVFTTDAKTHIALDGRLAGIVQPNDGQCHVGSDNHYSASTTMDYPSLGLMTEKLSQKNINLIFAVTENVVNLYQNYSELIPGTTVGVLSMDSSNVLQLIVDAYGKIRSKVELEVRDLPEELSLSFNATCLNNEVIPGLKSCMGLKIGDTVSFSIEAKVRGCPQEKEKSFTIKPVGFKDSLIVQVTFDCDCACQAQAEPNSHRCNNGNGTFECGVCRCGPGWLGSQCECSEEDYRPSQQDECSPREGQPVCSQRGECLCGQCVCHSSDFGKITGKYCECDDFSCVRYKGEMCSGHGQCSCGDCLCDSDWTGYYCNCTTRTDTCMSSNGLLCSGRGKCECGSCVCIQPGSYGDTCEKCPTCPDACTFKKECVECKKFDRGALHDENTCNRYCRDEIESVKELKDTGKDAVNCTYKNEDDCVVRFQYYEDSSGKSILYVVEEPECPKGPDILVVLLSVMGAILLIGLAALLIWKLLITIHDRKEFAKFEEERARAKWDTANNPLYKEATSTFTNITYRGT
Chain of Integrin alpha-IIb/beta-3 (P08514 32-887 limits assumed): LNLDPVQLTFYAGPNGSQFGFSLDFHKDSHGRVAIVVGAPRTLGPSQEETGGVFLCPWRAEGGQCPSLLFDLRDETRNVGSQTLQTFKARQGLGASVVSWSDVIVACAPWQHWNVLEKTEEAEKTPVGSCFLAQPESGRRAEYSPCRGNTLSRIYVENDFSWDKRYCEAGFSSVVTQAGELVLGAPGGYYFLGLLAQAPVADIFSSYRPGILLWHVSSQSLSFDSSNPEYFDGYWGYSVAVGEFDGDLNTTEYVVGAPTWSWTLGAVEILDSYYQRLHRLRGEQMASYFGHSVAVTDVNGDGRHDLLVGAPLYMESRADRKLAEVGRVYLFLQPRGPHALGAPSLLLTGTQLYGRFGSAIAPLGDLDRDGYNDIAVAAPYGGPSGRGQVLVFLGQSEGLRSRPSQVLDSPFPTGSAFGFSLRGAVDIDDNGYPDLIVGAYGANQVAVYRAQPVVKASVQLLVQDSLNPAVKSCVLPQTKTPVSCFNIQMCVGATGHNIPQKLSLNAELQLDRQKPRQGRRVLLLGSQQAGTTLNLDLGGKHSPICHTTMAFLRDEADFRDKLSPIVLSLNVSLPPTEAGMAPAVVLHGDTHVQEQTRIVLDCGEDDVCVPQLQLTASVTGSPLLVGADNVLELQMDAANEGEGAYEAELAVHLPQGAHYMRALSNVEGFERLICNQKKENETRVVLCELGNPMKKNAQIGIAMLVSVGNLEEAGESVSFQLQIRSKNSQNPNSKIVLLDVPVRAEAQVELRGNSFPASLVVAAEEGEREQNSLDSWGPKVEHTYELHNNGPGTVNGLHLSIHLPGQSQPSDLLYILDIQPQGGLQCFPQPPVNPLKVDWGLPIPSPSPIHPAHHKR
Chain of Integrin alpha-IIb/beta-3 (P08514 891-1039 limits assumed): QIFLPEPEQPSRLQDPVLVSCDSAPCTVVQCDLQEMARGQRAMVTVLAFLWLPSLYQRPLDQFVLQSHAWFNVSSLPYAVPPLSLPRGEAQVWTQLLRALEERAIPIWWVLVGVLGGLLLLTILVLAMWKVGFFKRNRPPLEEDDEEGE

What is called IC50 is the concentration that gives 50% inhibition. Low readings indicate greater potency in that assay, high ones weaker potency in that assay. `O=C(O)CN1Cc2ccc(NC(=O)c3ccc(C4CCNCC4)cc3)cc2C1=O` registered an IC50 in assay [1] of 270 nM.
The same measure, in the same setting: to `O=C(O)CN1Cc2ccc(NC(=O)c3ccc4c(c3)CNCC4)cc2C1=O` belongs 1200 nM; to `O=C(O)CCN1Cc2ccc(NC(=O)CCCC3CCNCC3)cc2C1=O`, 5.5 nM.
In the case of `O=C(O)CCN1Cc2ccc(NC(=O)c3ccc(C4CCNCC4)cc3)cc2C1=O`, the IC50 in assay [1] amounted to 6.8 nM.
`O=C(O)CCN1Cc2ccc(NC(=O)c3ccc4c(c3)CNCC4)cc2C1=O` yielded an IC50 in assay [1] of 6.5 nM.
Take `O=C(O)CCCN1Cc2ccc(NC(=O)CC3CCNCC3)cc2C1=O`: half-maximal inhibition in assay [2] (IC50) required 1800 nM. In other words, the single-digit micromolar range.
On the same count and under the same terms, to `O=C(O)CN1Cc2ccc(NC(=O)CC3CCNCC3)cc2C1=O` belongs 51000 nM; to `O=C(O)CN1Cc2ccc(NC(=O)c3ccc(N4CCNCC4)cc3)cc2C1=O`, 3300 nM; to `O=C(O)CCN1Cc2ccc(NC(=O)CC3CCNCC3)cc2C1=O`, 7400 nM.
On the same count and under the same terms, under `O=C(O)CCN1Cc2ccc(NC(=O)c3cccc(N4CCNCC4)c3)cc2C1=O` stands 2700 nM.
In assay [1], `CC(CC(=O)O)N1Cc2ccc(NC(=O)CCCC3CCNCC3)cc2C1=O` (racemic) displayed an IC50 of 350 nM.
`CC(CC(=O)O)N1Cc2ccc(NC(=O)c3ccc(N4CCNCC4)cc3)cc2C1=O` (racemic) showed a concentration for half-maximal inhibition (IC50) in assay [1] of 37 nM. Against the preceding compound, the IC50 is about 9.5-fold lower.
For `CC(CC(=O)O)N1Cc2ccc(NC(=O)c3ccc4c(c3)CNCC4)cc2C1=O` (racemic), in assay [1], the IC50 came out at 6.5 nM. This IC50 lies about 5.7-fold lower than the previous one.
Take `CC(CC(=O)O)N1Cc2ccc(NC(=O)c3cccc(N4CCNCC4)c3)cc2C1=O` (racemic): in assay [2], the half-maximal inhibitory concentration (IC50) came out at 62000 nM.
The same measure, in the same setting: to `CC(CC(=O)O)N1Cc2ccc(NC(=O)CC3CCNCC3)cc2C1=O` (racemic) belongs 2700 nM; to `CCCCS(=O)(=O)N[C@@H](Cc1ccc(OCCCCC2CCNCC2)cc1)C(=O)O` [TIROFIBAN], 32 nM.
